# Test results as given in PMC6658769, “First-Time-in-Human Study and Prediction of Early Bactericidal Activity for GSK3036656, a Potent Leucyl-tRNA Synthetase Inhibitor for Tuberculosis Treatment” (Antimicrobial Agents and Chemotherapy, 2019).
# Like-named read-outs stand apart in the source and are kept apart here. Marks after values point to notes of the source that are not given here.
# Experiments:
# [1] = Chronic lung infection model in mice; type: in vivo, C57BL/6 mice; conditions: C57BL/6, mouse, in vivo, 1.3 mg/kg, read-out: plasma steady-state AUC associated with EDmax (AUCEDmax), target exposure for efficacy in humans
# Method: (§1) The efficacy of GSK3036656 was assessed in C57BL/6 mice having acute and chronic lung infections by M. tuberculosis H37Rv, which mimic infections by actively replicating and nonreplicating/slow-replicating mycobacteria, respectively ([13], [14]). In the acute model, 10 mice were administered different daily oral doses ranging from 0.1 to 100 mg/kg of body weight for 8 days starting 1 day after infection. A maximum difference of 3.6 log CFU was obtained in the lungs compared to untreated mice. […] In the chronic model, a total of 18 mice were administered doses ranging from 0.1 to 30 mg/kg from weeks 6 to 14 after infection. Maximum reduction (drop of 2.1 log10 CFU in the lungs) was achieved after 2 months of daily oral treatment and after fitting the data to a sigmoidal curve. The EDmax for GSK3036656 was estimated as 1.3 mg/kg ([…], 0.7 to 3.4 mg/kg). […] Some additional groups treated at 0.3 to 30 mg/kg were studied in the chronic model to obtain kinetic data (from 2 to 16 weeks of treatment).
# [2] = tested on: M. tuberculosis H37Rv; test: Chronic lung infection model in mice; type: in vivo, C57BL/6 mice
# Method: as §1
# [3] = FTIH part B: plasma pharmacokinetics and accumulation after repeat dose; conditions: human, po
# [4] = tested on: panel of common bacterial pathogens; test: Activity against a panel of common bacterial pathogens; type: cell-based
# [5] = human, in vivo
# [6] = human, in vivo; remark: listed apart in the source
# [7] = Food effect study (part A, high-fat meal); conditions: 5 mg; for half-life: human, plasma, po, t1/2, geometric LS mean
# [8] = clinical; conditions: human, in vivo, po, 5 mg, Ref
# [9] = Population PK model at completion of the study
# [10] = tested on: cytochrome P450s; type: in vitro ADME
# [11] = FTIH part A: plasma pharmacokinetics after single dose; conditions: human, po
# [12] = target: CYP3A4 (Homo sapiens, UniProt P08684); test: Metabolism-dependent inhibition or induction of CYP3A4; type: in vitro ADME; conditions: in vitro
# [13] = dog, in vivo
# [14] = in vitro; type: in vitro ADME, humans; conditions: human, plasma
# [15] = in vitro; type: in vitro ADME; conditions: mouse, plasma
# [16] = FTIH study part A (single dose): safety and tolerability
# [17] = in vitro; type: in vitro ADME; conditions: dog, plasma
# [18] = Stability in pooled and spiked urine; type: physicochemical, human; conditions: multiple freeze-thaw cycles and prolonged exposure to light
# [19] = both, human, in vivo
# [20] = type: in vitro ADME; conditions: not told
# [21] = tested on: M. tuberculosis H37Rv; test: Acute lung infection model in mice; type: in vivo, C57BL/6 mice
# Method: as §1
# [22] = human, in vivo; remark: listed apart in the source
# [23] = rat, in vivo
# Sequence of CYP3A4 (P08684 whole entry): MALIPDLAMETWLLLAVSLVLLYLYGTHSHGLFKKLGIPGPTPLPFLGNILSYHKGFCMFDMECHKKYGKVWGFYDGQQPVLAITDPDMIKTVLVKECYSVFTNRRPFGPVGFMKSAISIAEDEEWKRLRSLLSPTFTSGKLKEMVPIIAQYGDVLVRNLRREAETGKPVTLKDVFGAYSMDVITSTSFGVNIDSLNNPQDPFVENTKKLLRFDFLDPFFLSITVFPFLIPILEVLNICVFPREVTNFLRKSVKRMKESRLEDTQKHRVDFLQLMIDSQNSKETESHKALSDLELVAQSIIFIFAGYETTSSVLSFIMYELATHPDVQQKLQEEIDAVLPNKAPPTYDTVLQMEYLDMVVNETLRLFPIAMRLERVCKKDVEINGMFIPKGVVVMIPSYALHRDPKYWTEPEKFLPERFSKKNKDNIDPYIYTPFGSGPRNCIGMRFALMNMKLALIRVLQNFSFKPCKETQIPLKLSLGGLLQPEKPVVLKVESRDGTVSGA
smiles,measurement,setting,value
"NC[C@H]1OB(O)c2c(OCCO)ccc(Cl)c21 [GSK3036656, (S)-3-(aminomethyl)-4-chloro-7-(2-hydroxyethoxy)benzo[c][1,2]oxaborol-1(3H)-ol]",AUC,[1],1.74 µg·h/mL
same,maximum reduction (drop of CFU in the lungs),[2]; 2 months of daily oral treatment,2.1 log10 CFU
same,EDmax,[2]; sigmoidal fit,1.3 mg/kg
same,half-life at 14 days,[3]; 5 mg,44 h
same,half-life at 14 days,[3]; 15 mg,37 h
same,activity against a panel of common bacterial pathogens,[4],inactivity
same,"dose-proportionality slope, Cmax",[5]; both,1.19
same,"steady-state AUC relative to the target exposure for efficacy in humans (1,740 ng · h/ml)",[5]; both,approximately 2.5 fold
same,accumulation of Cmax and AUC0–τ with repeated administration,"[5]; both, 14 days",2-3 fold
same,"dose-proportionality slope, Cmax","[5]; both, 14 days",1.06
same,"RoCmax, geometric LS mean, Ref",[5]; 5 mg,48.40 ng/mL
same,"RoCmax, geometric LS mean, Test",[5]; 5 mg,97.04 ng/mL
same,"RoCmax, geometric LS mean, Ref",[5]; 15 mg,178.79 ng/mL
same,"RoCmax, geometric LS mean, Test",[5]; 15 mg,309.55 ng/mL
same,Total % dose (drug-related material) in pooled urine,[6],50 % dose
same,t1/2 ratio,[7]; fed vs fasted,0.89
same,half-life,"[7]; Ref, 5 mg fasted, n = 6",38.6 h
same,half-life,"[7]; Test, 5 mg fed, n = 5",34.4 h
same,AUC(0-t),"[8]; AUC0–t, geometric LS mean",0.732 µg·h/mL
same,AUC(0-inf),"[8]; AUC0–∞, geometric LS mean",1.43 µg·h/mL
same,Cmax,"[8]; Cmax, geometric LS mean",0.0484 µg/mL
same,Tmax,[8]; Tmax,1.25 h
same,"CL/F, bootstrap median estimate","[9]; bootstrap (1,000 runs)",3.7 L/h
same,"IIV Q/F, bootstrap median estimate","[9]; bootstrap (1,000 runs)",26.5
same,"IIV V2/F, bootstrap median estimate","[9]; bootstrap (1,000 runs)",107
same,"IIV V3/F, bootstrap median estimate","[9]; bootstrap (1,000 runs)",22.9
same,"Q/F, bootstrap median estimate","[9]; bootstrap (1,000 runs)",63.1 L/h
same,"V2/F, bootstrap median estimate","[9]; bootstrap (1,000 runs)",15.9 L
same,"V3/F, bootstrap median estimate","[9]; bootstrap (1,000 runs)",149 L
same,"CL/F, estimate (%SE)",[9]; final population PK model,3.69 (3) liters/h
same,"Q/F, estimate (%SE)",[9]; final population PK model,63 (15) liters/h
same,"V2/F, estimate (%SE)",[9]; final population PK model,14.9 (30) liters
same,"V3/F, estimate (%SE)",[9]; final population PK model,150 (6) liters
same,"IIV Q/F, estimate (%SE)","[9]; random effects, final model",27.3 (37)
same,"IIV V2/F, estimate (%SE)","[9]; random effects, final model",111 (37)
same,"IIV V3/F, estimate (%SE)","[9]; random effects, final model",23.3 (30)
same,direct inhibition of cytochrome P450s,[10],minimal evidence for direct inhibition
same,half-life,"[11]; both, 5 mg",40.9 h
same,half-life,"[11]; both, 15 mg",28.4 h
same,half-life,[11]; 25 mg,49.9 h
same,metabolism-dependent inhibition or induction of CYP3A4,[12],no evidence
same,oral bioavailability,[13],very high
same,fraction unbound,[14],0.838
same,fraction unbound,[15],0.792
same,No. (%) of subjects with AE: Musculoskeletal chest pain,[16]; single dose 5 mg (n = 6),0 No. (%)
same,No. (%) of subjects with AE: Musculoskeletal chest pain,"[16]; single dose 5 mg, fed (n = 5)",0 No. (%)
same,No. (%) of subjects with AE: Musculoskeletal chest pain,[16]; single dose 15 mg (n = 6),0 No. (%)
same,No. (%) of subjects with AE: Musculoskeletal chest pain,[16]; single dose 25 mg (n = 6),1 (17) No. (%)
same,fraction unbound,[17],0.76
same,stability in pooled and spiked urine,[18],degraded to GSK3635633
same,"dose-proportionality slope, AUC0–t",[19],1.32
same,"dose-proportionality slope, Cmax and AUC0–∞",[19],0.96
same,passive permeability,[20],moderate
same,maximum difference in the lungs compared to untreated mice,[21]; daily oral doses 0.1 to 100 mg/kg for 8 days,3.6 log CFU
same,EDmax (effective dose giving 90% of the total effect),[21]; sigmoidal fit,1.1 mg/kg
same,Tmax difference (fed-fasted),[22],0.75^b h
same,oral bioavailability,[23],very high
